Assay results published in PMC7497403, “Development of Potent PfCLK3 Inhibitors Based on TCMDC-135051 as a New Class of Antimalarials” (Journal of Medicinal Chemistry, 2020).
In brackets after ≈: the same amount, converted by molar mass.

Key:
[1] = system: P. falciparum clinical field isolates from The Gambia; test: Parasite reduction rate (PRR) assay with clinical isolates; assay type: cell-based
Microsomal stability = assay type: in vitro ADME; details: mouse liver microsomes; 1 μM compound
Method: Compounds were incubated at 37 °C at a concentration of 1 μM with CD1 mouse liver microsomes (GIBCO, Thermo Fisher Scientific) in a suspension of 50 mM potassium phosphate buffer (pH 7.4) with a final protein concentration of 0.5 mg/mL. The reaction was started by the addition of excess NADPH and then quenched at several time points starting from time 0, then at 3, 6, 9, 15, and 30 min addition of acetonitrile to an aliquot of the sample. An internal standard was added to each sample before centrifugation to remove any precipitates before monitoring loss of parent compound by HPLC analysis using Shimadzu LC-20A (Shimadzu, UK). Prism (Graphpad, USA) was used to fit an exponential decay for substrate depletion and subsequently rate constant (k) from the peak area of the parent compound to the internal standard at each time point.

CK1δ = CK1δ (Homo sapiens, UniProt P48730); test: Kinase screen; assay type: biochemical
Aqueous solubility = assay type: physicochemical; details: aqueous medium (not further specified); read-out: Aq. Solubility

Sequence of CK1δ (P48730 whole entry): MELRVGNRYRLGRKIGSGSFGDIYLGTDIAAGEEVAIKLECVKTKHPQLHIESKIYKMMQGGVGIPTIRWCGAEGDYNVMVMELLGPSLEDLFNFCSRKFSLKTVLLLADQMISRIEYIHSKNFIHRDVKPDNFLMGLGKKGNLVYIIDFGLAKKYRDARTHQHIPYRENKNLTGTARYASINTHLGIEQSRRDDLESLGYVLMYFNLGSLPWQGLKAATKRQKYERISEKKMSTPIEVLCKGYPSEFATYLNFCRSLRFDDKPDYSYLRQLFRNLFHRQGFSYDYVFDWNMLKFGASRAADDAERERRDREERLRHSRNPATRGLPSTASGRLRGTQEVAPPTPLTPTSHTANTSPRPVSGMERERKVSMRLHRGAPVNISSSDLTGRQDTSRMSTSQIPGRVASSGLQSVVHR

CCN(CC)Cc1ccc(OC)c(-c2cc3c(-c4ccc(C(=O)O)c(C(C)C)c4)ccnc3[nH]2)c1 [analogue 1, 4-(2-(5-((Diethylamino)methyl)-2-methoxyphenyl)-1H-pyrrolo[2,3-b]pyridin-4-yl)-2-isopropylbenzoic Acid]
susceptibility of clinical isolates (PRR) [1]: total susceptibility | clint (in vitro intrinsic clearance) (Microsomal stability): 1.12 mL/min/g liver | activity at 1 µM (CK1δ): 91% | solubility (Aqueous solubility): 8 µg/mL (≈ 17 µM)
